From ChEMBL document CHEMBL1287687, “5-benzyloxytryptamine as an antagonist of TRPM8” (Bioorg Med Chem Lett, 2010)
Active and inactive are the calls of the source. The rule behind the calls is not given here.

What was measured:
[1] = target: T1, Transient receptor potential cation channel subfamily M member 8 (Homo sapiens, UniProt Q7Z2W7); assay: Antagonist activity at human TRPM8 receptor expressed in human T-REx-293 cells assessed as inhibition of icilin-induced 45calcium influx treated 5 mins before icilin challenge measured after 5 mins; format: functional, cell-based, HEK293
Target sequence in this assay (Q7Z2W7 whole entry): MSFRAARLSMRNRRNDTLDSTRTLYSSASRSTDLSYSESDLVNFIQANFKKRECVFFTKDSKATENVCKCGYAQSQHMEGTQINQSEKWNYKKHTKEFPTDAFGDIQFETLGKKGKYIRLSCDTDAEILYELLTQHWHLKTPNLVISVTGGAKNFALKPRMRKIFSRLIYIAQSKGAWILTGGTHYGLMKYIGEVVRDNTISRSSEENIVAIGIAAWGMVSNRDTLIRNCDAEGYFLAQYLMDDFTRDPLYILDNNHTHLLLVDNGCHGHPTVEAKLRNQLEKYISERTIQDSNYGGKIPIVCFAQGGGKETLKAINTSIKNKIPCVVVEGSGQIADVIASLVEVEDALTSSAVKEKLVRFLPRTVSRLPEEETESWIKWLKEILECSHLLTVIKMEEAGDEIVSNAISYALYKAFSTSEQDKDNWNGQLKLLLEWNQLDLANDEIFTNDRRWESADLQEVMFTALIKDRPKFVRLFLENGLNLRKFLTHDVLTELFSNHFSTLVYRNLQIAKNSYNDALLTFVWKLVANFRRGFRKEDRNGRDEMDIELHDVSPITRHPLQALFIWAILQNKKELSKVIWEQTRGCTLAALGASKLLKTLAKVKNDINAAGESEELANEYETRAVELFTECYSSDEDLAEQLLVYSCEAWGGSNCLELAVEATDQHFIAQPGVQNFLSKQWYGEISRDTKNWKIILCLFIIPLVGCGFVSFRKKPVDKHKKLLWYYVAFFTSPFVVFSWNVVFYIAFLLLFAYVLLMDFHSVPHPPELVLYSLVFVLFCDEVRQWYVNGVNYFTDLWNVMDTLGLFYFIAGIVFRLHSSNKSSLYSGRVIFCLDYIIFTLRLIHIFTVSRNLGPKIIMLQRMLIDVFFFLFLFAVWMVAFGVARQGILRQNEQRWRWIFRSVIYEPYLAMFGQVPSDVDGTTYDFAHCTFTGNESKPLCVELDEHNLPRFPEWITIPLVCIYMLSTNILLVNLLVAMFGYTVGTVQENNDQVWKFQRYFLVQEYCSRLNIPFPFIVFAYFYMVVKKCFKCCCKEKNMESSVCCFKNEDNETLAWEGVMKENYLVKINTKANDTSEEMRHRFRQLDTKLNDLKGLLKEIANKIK

[2] = target: T1, Transient receptor potential cation channel subfamily M member 8; assay: Antagonist activity at human TRPM8 receptor expressed in human T-REx-293 cells assessed as inhibition of menthol-induced 45calcium influx treated 5 mins before menthol challenge measured after 5 mins; format: functional, cell-based, HEK293
Target sequence in this assay (Q7Z2W7 whole entry): as above

[3] = target: Transient receptor potential cation channel subfamily V member 4 (Homo sapiens) (UniProt Q9HBA0); assay: Inhibition of TRPV4 receptor up to 10 uM
Transient receptor potential cation channel subfamily V member 4 (Homo sapiens), sequence (Q9HBA0 whole entry): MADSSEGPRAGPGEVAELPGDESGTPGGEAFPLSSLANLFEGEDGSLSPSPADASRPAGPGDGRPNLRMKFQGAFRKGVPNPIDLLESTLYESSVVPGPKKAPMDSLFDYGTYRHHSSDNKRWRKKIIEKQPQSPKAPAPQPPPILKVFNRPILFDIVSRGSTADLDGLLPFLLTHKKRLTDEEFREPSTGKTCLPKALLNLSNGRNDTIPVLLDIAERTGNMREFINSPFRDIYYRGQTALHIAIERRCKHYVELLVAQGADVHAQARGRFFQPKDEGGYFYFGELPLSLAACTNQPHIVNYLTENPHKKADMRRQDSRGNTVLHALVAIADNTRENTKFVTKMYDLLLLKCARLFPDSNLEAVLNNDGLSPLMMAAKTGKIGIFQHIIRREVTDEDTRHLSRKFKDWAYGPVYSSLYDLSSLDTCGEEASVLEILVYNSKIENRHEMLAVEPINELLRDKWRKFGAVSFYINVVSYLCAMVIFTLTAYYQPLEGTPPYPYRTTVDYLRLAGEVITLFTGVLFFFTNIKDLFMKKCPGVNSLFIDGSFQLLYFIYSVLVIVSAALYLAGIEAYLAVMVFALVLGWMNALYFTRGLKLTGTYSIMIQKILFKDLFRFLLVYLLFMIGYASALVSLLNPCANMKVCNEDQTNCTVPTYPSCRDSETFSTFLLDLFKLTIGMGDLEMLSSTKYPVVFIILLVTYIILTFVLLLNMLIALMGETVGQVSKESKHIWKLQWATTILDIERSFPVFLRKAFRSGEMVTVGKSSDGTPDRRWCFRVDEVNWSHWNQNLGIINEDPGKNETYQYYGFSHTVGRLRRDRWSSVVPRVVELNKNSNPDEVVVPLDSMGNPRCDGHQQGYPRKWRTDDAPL

[4] = target: T1, Transient receptor potential cation channel subfamily M member 8; settings: HEK293, 1 uM
Target sequence in this assay (Q7Z2W7 whole entry, looked up): as the sequence (Q7Z2W7 whole entry) above
Description: Antagonist activity at human TRPM8 receptor expressed in HEK cells assessed as inhibition of WS-12-stimulated current at 1 uM pretreated for 2 mins by patch clamp assay

[5] = target: Transient receptor potential cation channel subfamily A member 1 (Homo sapiens) (UniProt O75762); assay: Inhibition of TRPA1 receptor up to 10 uM
Transient receptor potential cation channel subfamily A member 1 (Homo sapiens), sequence (O75762 whole entry): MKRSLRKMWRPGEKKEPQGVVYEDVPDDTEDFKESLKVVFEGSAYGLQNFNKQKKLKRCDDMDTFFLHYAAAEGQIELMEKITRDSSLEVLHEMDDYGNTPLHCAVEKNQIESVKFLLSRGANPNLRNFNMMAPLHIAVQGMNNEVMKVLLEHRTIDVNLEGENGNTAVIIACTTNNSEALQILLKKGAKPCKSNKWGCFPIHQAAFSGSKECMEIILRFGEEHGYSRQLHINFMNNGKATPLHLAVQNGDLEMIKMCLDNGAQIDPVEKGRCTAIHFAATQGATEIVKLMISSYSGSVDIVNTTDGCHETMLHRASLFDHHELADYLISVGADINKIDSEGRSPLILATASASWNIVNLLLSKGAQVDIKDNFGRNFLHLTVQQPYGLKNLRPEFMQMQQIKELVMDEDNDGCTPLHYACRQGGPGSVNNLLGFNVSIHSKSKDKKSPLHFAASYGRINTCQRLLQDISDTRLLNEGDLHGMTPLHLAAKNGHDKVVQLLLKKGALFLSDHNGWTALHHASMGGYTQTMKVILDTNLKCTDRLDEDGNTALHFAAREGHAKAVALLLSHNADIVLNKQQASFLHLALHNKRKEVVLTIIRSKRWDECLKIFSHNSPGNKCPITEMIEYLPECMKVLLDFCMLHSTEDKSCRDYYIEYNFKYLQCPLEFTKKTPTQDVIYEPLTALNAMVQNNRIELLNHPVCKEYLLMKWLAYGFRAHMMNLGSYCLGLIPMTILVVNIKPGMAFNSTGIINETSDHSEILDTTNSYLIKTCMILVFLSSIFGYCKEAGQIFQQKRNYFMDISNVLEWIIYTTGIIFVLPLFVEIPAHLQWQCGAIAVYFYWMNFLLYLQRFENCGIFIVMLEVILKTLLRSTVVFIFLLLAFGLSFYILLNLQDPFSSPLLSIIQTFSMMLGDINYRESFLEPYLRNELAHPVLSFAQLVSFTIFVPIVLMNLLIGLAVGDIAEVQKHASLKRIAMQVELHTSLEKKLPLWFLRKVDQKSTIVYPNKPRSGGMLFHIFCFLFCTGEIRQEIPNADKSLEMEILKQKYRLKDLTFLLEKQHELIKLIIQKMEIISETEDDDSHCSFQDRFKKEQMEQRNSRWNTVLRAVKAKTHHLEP

[6] = target: Transient receptor potential cation channel subfamily V member 1 (Homo sapiens) (UniProt Q8NER1); assay: Inhibition of TRPV1 receptor up to 10 uM
Transient receptor potential cation channel subfamily V member 1 (Homo sapiens), sequence (Q8NER1 whole entry): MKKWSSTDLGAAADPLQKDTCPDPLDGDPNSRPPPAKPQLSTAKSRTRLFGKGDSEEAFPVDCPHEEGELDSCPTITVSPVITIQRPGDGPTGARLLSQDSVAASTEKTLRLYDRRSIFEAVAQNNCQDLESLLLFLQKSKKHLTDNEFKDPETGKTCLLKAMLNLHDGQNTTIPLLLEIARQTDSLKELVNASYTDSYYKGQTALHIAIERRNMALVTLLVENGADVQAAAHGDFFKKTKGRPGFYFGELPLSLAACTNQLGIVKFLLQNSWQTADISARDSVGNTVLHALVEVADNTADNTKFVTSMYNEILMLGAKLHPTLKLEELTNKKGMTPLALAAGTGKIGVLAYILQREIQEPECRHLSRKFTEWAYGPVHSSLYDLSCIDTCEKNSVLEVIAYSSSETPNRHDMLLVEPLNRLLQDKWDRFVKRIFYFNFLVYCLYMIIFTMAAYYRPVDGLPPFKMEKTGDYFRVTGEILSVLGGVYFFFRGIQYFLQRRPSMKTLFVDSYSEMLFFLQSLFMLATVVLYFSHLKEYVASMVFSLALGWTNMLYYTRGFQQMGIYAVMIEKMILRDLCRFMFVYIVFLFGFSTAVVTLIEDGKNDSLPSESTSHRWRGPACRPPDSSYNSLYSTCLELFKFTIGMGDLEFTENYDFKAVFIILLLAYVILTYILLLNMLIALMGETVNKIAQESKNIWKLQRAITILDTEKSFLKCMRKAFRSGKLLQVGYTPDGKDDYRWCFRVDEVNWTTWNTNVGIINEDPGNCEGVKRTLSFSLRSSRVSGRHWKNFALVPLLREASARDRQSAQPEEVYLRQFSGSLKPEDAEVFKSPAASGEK

[7] = target: T1, Transient receptor potential cation channel subfamily M member 8; assay: Antagonist activity at human TRPM8 receptor expressed in HEK cells assessed as inhibition of WS-12-stimulated current at 100 uM pretreated for 2 mins by patch clamp assay; format: functional, cell-based; settings: HEK293
Target sequence in this assay (Q7Z2W7 whole entry, looked up): as the sequence (Q7Z2W7 whole entry) above

Structure (SMILES)	IC50 [1]	IC50 ([2]; read-out: IC50)	further results
NCCc1c[nH]c2c(OCc3ccccc3)cccc12	8.93 µM	3.34 µM	–
CN(C)CCc1c[nH]c2ccc(OCc3ccccc3)cc12	5.96 µM	5.63 µM	–
NCCc1c[nH]c2ccc(Br)cc12	30.4 µM	22.7 µM	–
NCCc1c[nH]c2ccc(OCc3ccccc3)cc12 [5-BENZYLOXYTRYPTAMINE]	0.66 µM	0.34 µM	inhibition [3]: inactive; inhibition [4]: Active; inhibition [5]: inactive; inhibition [6]: inactive
COc1ccc2[nH]cc(CCN)c2c1 [5-METHOXYTRYPTAMINE]	11.6 µM	12.4 µM	–
N#CCc1c[nH]c2ccc(OCc3ccccc3)cc12	–	–	IC50 ([2]; hek293): Not Active
NCCc1c[nH]c2ccc(O)cc12	–	–	inhibition [7]: inactive
NCCc1c[nH]c2ccc(F)cc12	13.1 µM	12.3 µM	–
c1ccc(COc2ccc3[nH]ccc3c2)cc1	–	–	IC50 ([2]; hek293): Not Active
NCCc1c[nH]c2ccc(Cl)cc12	32.2 µM	21.5 µM	–
CCOC(=O)NCCc1c[nH]c2ccc(OCc3ccccc3)cc12	28.8 µM	21.6 µM	–
Cc1[nH]c2ccc(OCc3ccccc3)cc2c1CCN	2.36 µM	1.5 µM	–
